Ten compounds from ChEMBL document CHEMBL1141220, “A new class of HIV-1 protease inhibitors containing a tertiary alcohol in the transition-state mimicking scaffold” (J Med Chem, 2005) can be followed below.

For series [1], the target named is Human immunodeficiency virus type 1 protease (Human immunodeficiency virus 1, UniProt Q72874). Put plainly: Inhibitory activity against HIV1 protease expressed in Escherichia coli in a fluorometric assay.
Series [2] deals with MT4. Put plainly: Antiviral activity against HIV1 infected MT4 cells by colorimetric XTT assay. The series is classed as functional, cell-based. Particulars: Homo sapiens.
In series [3] the test system is MT4. The experiment in a line: Antiviral activity against mutant HIV1 (V32I, M46I, V82A) infected MT4 cells by colorimetric XTT assay. The series is classed as functional, cell-based. (In general: Tetrazolium dyes change colour on reduction, which living cells bring about.)
Series [4] is described as follows: Caco-2 cell membrane permeability. The series is classed as ADME, cell-based. The conditions noted are these: human. Background: Caco-2 cells form a polarised layer with tight junctions and transporters.
For series [5], the system named is MT4. Put plainly: Antiviral activity against mutant HIV1 (V32I, M46I, A71V, V82A) infected MT4 cells by colorimetric XTT assay. The series is classed as functional, cell-based.
Series [6] can be described thus: Intrinsic clearance (CL) in human liver microsomes at 2 uM. The format is ADME, Microsome. On the technique in general: Liver microsomes are a subcellular fraction often used to study metabolism.

For orientation: Ki means the dissociation constant of the complex between target and ligand, obtained from inhibition or displacement. Read a low Ki as tighter binding. Usually EC50 stands for the concentration giving half of the maximal effect. As to `COC(=O)N[C@H](C(=O)NN(Cc1ccccc1)C[C@@](O)(Cc1ccccc1)C(=O)N[C@H]1c2ccccc2C[C@H]1O)C(C)C`, the affinity in series [1] corresponds to a Ki of 0.009 µM. In addition, in the series on MT4 [2], the EC50 worked out at 4.8 µM.

Usually Papp stands for a coefficient for how fast a substance crosses the barrier. For `COC(=O)N[C@H](C(=O)NN(Cc1ccc(Br)cc1)C[C@@](O)(Cc1ccccc1)C(=O)N[C@H]1c2ccccc2C[C@H]1O)C(C)(C)C`, the results for the EC50 with MT4 [3], in the series with MT4 [5] and in the series with MT4 [2] were 0.9 µM, 0.8 µM and 1.1 µM, respectively. This compound also gave a Papp in series [4] of 42 ×10⁻⁶ cm/s.

For the compound `CC(C)[C@H](NC(=O)OCc1ccccc1)C(=O)NN(Cc1ccccc1)C[C@](O)(Cc1ccccc1)C(=O)N[C@H]1c2ccccc2C[C@H]1O`, affinity in series [1] was put at a Ki of 0.87 µM. Besides, the EC50 in the series on MT4 [2] was more than 10 µM.

As for `COC(=O)N[C@H](C(=O)NN(Cc1ccccc1)C[C@](O)(Cc1ccccc1)C(=O)N[C@H]1c2ccccc2C[C@H]1O)C(C)(C)C`, the EC50 in the series with MT4 [2] was more than 10 µM.

In series [1], `CC(C)(C)[C@H](NS(C)(=O)=O)C(=O)NN(Cc1ccccc1)C[C@@](O)(Cc1ccccc1)C(=O)N[C@H]1c2ccccc2C[C@H]1O` gave a Ki of 0.063 µM. Also, the EC50 in the series with MT4 [2] is more than 10 µM.

In series [1], `CC(C)[C@H](NC(=O)OCc1ccccc1)C(=O)NN(Cc1ccccc1)C[C@@](O)(Cc1ccccc1)C(=O)N[C@H]1c2ccccc2C[C@H]1O` registered an inhibition constant (Ki) of 0.023 µM. The same compound displayed an EC50 with MT4 [2] of more than 10 µM.

The compound `CC(C)(C)[C@H](NC(=O)NCc1ccccc1)C(=O)NN(Cc1ccccc1)C[C@@](O)(Cc1ccccc1)C(=O)N[C@H]1c2ccccc2C[C@H]1O` came in with a Ki in series [1] of 0.022 µM. Besides, the EC50 with MT4 [2] is more than 10 µM.

In series [1], `CC(C)(C)[C@H](NC(=O)OCc1ccccc1)C(=O)NN(Cc1ccccc1)C[C@@](O)(Cc1ccccc1)C(=O)N[C@H]1c2ccccc2C[C@H]1O` yielded a Ki of 0.018 µM. Moreover, in the series on MT4 [2], the EC50 was more than 10 µM.

A word on the microsomal CLint: it is a measure of how fast metabolising enzymes remove a compound, apart from limits set by blood flow. Low values mean greater metabolic stability, high ones faster metabolism. On to `COC(=O)N[C@H](C(=O)NN(Cc1ccccc1)C[C@@](O)(Cc1ccccc1)C(=O)N[C@H]1c2ccccc2C[C@H]1O)C(C)(C)C`, for which the EC50 in the series on MT4 [3] was determined as 2 µM; with MT4 [5], 1.6 µM; in the series on MT4 [2], 1.9 µM. Besides, the Papp in series [4] stood at 35 ×10⁻⁶ cm/s. The compound also came in with a Ki in series [1] of 0.006 µM. The same compound yielded a microsomal CLint at 2 µM in series [6] of 527 µL/min/mg.

For the compound `CC(C)[C@H](NC(=O)OCc1ccccc1)C(=O)NN(Cc1ccc(Br)cc1)C[C@@](O)(Cc1ccccc1)C(=O)N[C@H]1c2ccccc2C[C@H]1O`, affinity in series [1] was put at a Ki of 0.017 µM. In the series on MT4 [2], this compound had an EC50 of more than 10 µM.
